Earlier results as cited in patent publication US9107837B2, “Sustained release formulation of naltrexone” (Orexigen Therapeutics, Inc., priority 2006, dated 2015).

Details: open label, approximately 570 individuals with alcoholism

O=C1CC[C@@]2(O)[C@H]3Cc4ccc(O)c5c4[C@@]2(CCN3CC2CC2)[C@H]1O5 [naltrexone, 17-(cyclopropylmethyl)-4,5α-epoxy-3,14-dihydroxymorphinan-6-one]
New-onset adverse reaction: anxiety: 2%
New-onset adverse reaction: dizziness: 4%
New-onset adverse reaction: fatigue: 4%
New-onset adverse reaction: headache: 7%
New-onset adverse reaction: insomnia: 3%
New-onset adverse reaction: nausea: 10%
New-onset adverse reaction: nervousness: 4%
New-onset adverse reaction: somnolence: 2%
New-onset adverse reaction: vomiting: 3%
